Laboratory results taken from patent US7312227B2, “Compositions useful as inhibitors of JAK and other protein kinases” (Vertex Pharmaceuticals Incorporated, priority 2002, dated 2007).

target: JNK3 (Homo sapiens, UniProt P53779); test: JNK3 inhibition assay (spectrophotometric coupled-enzyme assay); type: biochemical; conditions: 10 nM activated JNK3, 10 μM ATP, 200 μM EGF receptor peptide, 30° C.
Description: Compounds were assayed for the inhibition of JNK3 by a spectrophotometric coupled-enzyme assay. In this assay, a fixed concentration of activated JNK3 (10 nM) was incubated with various concentrations of a potential inhibitor dissolved in DMSO for 10 minutes at 30° C. in a buffer containing 0.1 M HEPES buffer, pH 7.5, containing 10 mM MgCl2, 2.5 mM phosphoenolpyruvate, 200 μM NADH, 150 μg/mL pyruvate kinase, 50 μg/mL lactate dehydrogenase, and 200 μM EGF receptor peptide. The EGF receptor is a phosphoryl acceptor in the JNK3-catalyzed kinase reaction. The reaction was initiated by the addition of 10 μM ATP and the assay plate is inserted into the spectrophotometer's assay plate compartment that was maintained at 30° C. The decrease of absorbance at 340 nm was monitored as a function of time. The rate data as a function of inhibitor concentration was fitted to competitive inhibition kinetic model to determine the Ki.

Chain of JNK3 (P53779 whole entry): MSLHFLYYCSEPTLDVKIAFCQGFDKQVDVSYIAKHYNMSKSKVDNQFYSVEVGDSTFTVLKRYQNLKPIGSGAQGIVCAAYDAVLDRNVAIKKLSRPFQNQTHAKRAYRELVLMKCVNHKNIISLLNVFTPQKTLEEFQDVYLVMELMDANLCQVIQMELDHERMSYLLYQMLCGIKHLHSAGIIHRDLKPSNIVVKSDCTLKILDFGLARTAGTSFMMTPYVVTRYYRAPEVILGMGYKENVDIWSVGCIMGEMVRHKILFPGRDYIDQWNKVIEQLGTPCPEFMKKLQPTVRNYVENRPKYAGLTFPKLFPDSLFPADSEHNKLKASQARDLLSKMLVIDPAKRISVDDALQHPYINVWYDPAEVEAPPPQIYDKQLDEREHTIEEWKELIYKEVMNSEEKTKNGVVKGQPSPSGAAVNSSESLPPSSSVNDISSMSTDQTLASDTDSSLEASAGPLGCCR

Ki, ≤ 1000 nM:
O=C(COc1ccccc1)Nc1ccc(-c2ccnc(Nc3cccc(O)c3)n2)cc1 [IV-B(i)-11]
Nc1cccc(Nc2nccc(-c3ccc(NC(=O)c4cccs4)cc3)n2)c1 [IV-B(i)-2]

target: T1, JAK3 (Homo sapiens, UniProt P52333); test: JAK3 inhibition assay; type: biochemical; conditions: 2 μM ATP, Poly (Glu, Ala, Tyr) 6:3:1 coated plates, 60 minutes at 30° C.
T1 sequence (P52333 1-1124): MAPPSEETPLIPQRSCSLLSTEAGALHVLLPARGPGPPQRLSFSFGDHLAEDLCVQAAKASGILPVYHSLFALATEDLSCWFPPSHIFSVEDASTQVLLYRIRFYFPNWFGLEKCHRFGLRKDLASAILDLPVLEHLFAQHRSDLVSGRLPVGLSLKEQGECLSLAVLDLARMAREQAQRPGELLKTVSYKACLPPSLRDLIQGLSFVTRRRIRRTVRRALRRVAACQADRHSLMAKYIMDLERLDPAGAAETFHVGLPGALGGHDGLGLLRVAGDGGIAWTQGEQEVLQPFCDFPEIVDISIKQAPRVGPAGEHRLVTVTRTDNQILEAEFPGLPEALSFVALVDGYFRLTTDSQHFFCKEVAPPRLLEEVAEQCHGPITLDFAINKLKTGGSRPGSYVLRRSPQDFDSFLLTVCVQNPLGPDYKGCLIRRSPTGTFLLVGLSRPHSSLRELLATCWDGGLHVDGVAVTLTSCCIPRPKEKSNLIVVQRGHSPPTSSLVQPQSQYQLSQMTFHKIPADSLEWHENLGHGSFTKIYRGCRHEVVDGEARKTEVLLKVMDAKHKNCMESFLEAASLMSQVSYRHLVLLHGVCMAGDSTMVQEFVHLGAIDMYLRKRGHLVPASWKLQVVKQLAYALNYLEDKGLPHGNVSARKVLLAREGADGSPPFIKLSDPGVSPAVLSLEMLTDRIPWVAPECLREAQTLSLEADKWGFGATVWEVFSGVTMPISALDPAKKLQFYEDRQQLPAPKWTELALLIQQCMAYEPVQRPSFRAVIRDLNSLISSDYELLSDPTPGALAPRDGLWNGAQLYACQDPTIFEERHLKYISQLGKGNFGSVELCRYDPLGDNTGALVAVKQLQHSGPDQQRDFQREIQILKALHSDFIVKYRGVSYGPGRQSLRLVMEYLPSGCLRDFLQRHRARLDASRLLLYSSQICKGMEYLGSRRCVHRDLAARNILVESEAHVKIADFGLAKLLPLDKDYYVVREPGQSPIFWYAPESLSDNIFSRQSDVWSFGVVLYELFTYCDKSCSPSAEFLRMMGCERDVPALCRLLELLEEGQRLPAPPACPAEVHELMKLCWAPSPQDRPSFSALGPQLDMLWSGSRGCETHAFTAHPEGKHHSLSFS
Description: Compound inhibition of JAK was assayed by the method described by G. R. Brown, et al, Bioorg. Med. Chem. Lett. 2000, vol. 10, pp 575-579 in the following manner. Into Maxisorb plates, previously coated at 4° C. with Poly (Glu, Ala, Tyr) 6:3:1 then washed with phosphate buffered saline 0.05% and Tween (PBST), was added 2 μM ATP, 5 mM MgCl2, and a solution of compound in DMSO. The reaction was started with JAK enzyme and the plates incubated for 60 minutes at 30° C. The plates were then washed with PBST, 100 μL HRP-Conjugated 4G10 antibody was added, and the plate incubated for 90 minutes at 30° C. The plate was again washed with PBST, 100 μL TMB solution is added, and the plates were incubated for another 30 minutes at 30° C. Sulfuric acid (100 μL of 1M) was added to stop the reaction and the plate is read at 450 nm, and Ki values were determined.

Ki, ≤ 1000 nM:
Nc1cccc(Nc2nccc(-c3ccc(NC(=O)CN4CCCC4CO)cc3)n2)c1 (centres unmarked) [IV-B(i)-9]
O=C(COc1ccccc1)Nc1ccc(-c2ccnc(Nc3cccc(O)c3)n2)cc1 [IV-B(i)-11]
Nc1cccc(Nc2nccc(-c3ccc(NC(=O)c4cccs4)cc3)n2)c1 [IV-B(i)-2]
Nc1cccc(Nc2nccc(-c3ccc(NC(=O)CN4CCC(O)CC4)cc3)n2)c1 [IV-B(i)-8]
Nc1cccc(Nc2nccc(-c3ccc(NC(=O)CN4CCC(CO)CC4)cc3)n2)c1 [IV-B(i)-7]
O=C(NCC1CCCO1)c1cccc(-c2ccnc(Nc3ccccc3)n2)c1 (centres unmarked) [IV-C(i)-15]
COc1cccc(Nc2nccc(-c3cccc(N(C)C(=O)c4ccco4)c3)n2)c1 [IV-A(i)-2]
Nc1cccc(Nc2nccc(-c3ccc(NC(=O)CN4CCCC(CO)C4)cc3)n2)c1 (centres unmarked) [IV-B(i)-6]
O=C(NCc1ccccc1)c1ccc(-c2ccnc(Nc3ccccc3)n2)cc1 [IV-D(i)-2]
Nc1cccc(Nc2nccc(-c3ccc(NC(=O)COc4ccccc4)cc3)n2)c1 [IV-B(i)-3]
NS(=O)(=O)c1cccc(Nc2nccc(-c3cccc(NC(=O)c4ccco4)c3)n2)c1 [IV-A(i)-1]
Nc1cccc(Nc2nccc(-c3ccc(NC(=O)CN4CCOCC4)cc3)n2)c1 [IV-B(i)-5]
O=C(Nc1ccc(-c2ccnc(Nc3cccc(O)c3)n2)cc1)c1cccs1 [IV-B(i)-10]
Nc1cccc(Nc2nccc(-c3cccc(NC(=O)c4ccccn4)c3)n2)c1 [IV-A(i)-5]
Nc1cccc(Nc2nccc(-c3ccc(NC(=O)c4ccco4)cc3)n2)c1 [IV-B(i)-4]
O=C(Nc1cccc(-c2ccnc(Nc3cccc(O)c3)n2)c1)c1ccco1 [IV-A(i)-4]
Nc1cccc(Nc2nccc(-c3cccc(NC(=O)c4cccs4)c3)n2)c1 [IV-A(i)-6]
NS(=O)(=O)c1cccc(Nc2nccc(-c3ccc(NC(=O)COc4ccccc4)cc3)n2)c1 [IV-B(i)-1]

target: CDK-2/Cyclin A (Homo sapiens, UniProt P24941); test: CDK2 inhibition assay (coupled enzyme assay); type: biochemical; conditions: 100 μM ATP, 100 μM peptide, 25 nM CDK-2/Cyclin A, 30° C.
Description: Compounds were screened for their ability to inhibit CDK-2/Cyclin A using a standard coupled enzyme assay (Fox et al (1998) Protein Sci 7, 2249). Reactions were carried out in 100 mM HEPES pH 7.5, 10 mM MgCl2, 25 mM NaCl, 1 mM DTT and 1.5% DMSO. Final substrate concentrations in the assay were 100 μM ATP (Sigma chemicals) and 100 μM peptide (American Peptide, Sunnyvale, Calif.). Assays were carried out at 30° C. and 25 nM CDK-2/Cyclin A. Final concentrations of the components of the coupled enzyme system were 2.5 mM phosphoenolpyruvate, 350 μM NADH, 30 μg/ml pyruvate kinase and 10 μg/ml lactate dehydrogenase.
An assay stock buffer solution was prepared containing all of the reagents listed above, with the exception of CDK-2/Cyclin A, DTT and the test compound of interest. 56 μl of the test reaction was placed in a 384 well plate followed by addition of 1 μl of 2 mM DMSO stock containing the test compound (final compound concentration 30 μM). The plate was preincubated for ˜10 minutes at 30° C. and the reaction initiated by addition of 10 μl of enzyme (final concentration 25 nM). Rates of reaction were obtained using a BioRad Ultramark plate reader (Hercules, Calif.) over a 5 minute read time at 30° C. and Ki values were determined.

Ki, ≤ 1000 nM:
Cc1ccc(-c2ccnc(Nc3ccccc3)n2)cc1C(=O)NC1CCCCC1 [IV-C(i)-3]
O=C(COc1ccccc1)Nc1ccc(-c2ccnc(Nc3cccc(O)c3)n2)cc1 [IV-B(i)-11]
Nc1cccc(Nc2nccc(-c3ccc(NC(=O)c4cccs4)cc3)n2)c1 [IV-B(i)-2]
O=C(NC1CCCCC1)c1ccc(-c2ccnc(Nc3ccccc3)n2)cc1 [IV-D(i)-4]
Cc1ccc(-c2ccnc(Nc3ccccc3)n2)cc1C(=O)Nc1ccccc1 [IV-C(i)-2]
Cc1ccc(-c2ccnc(Nc3ccccc3)n2)cc1C(=O)NCc1ccccc1 [IV-C(i)-4]
